Experiment: xn = mol fraction of the nth substance listed

CC(C)CC(C)O (centres undefined) + CO
298.15 K, 101.33 kPa
Conditions	viscosity [mPa·s]
x2 = 0.1191	3.504
x2 = 0.2078	3.263
x2 = 0.3157	2.847
x2 = 0.4359	2.297
x2 = 0.5125	1.958
x2 = 0.6519	1.459
x2 = 0.7023	1.297
x2 = 0.8038	1.002
x2 = 0.9042	0.7423

CCCCCCCO + CO
viscosity [mPa·s], 101 kPa
Conditions	298.15 K	308.15 K	318.15 K
x2 = 0.05	5.378	3.995	2.975
x2 = 0.1	4.999	3.737	2.809
x2 = 0.15	4.634	3.487	2.647
x2 = 0.2	4.284	3.246	2.488
x2 = 0.25	3.949	3.013	2.332
x2 = 0.3	3.627	2.788	2.179
x2 = 0.35	3.319	2.571	2.028
x2 = 0.4	3.025	2.362	1.88
x2 = 0.45	2.744	2.161	1.735
x2 = 0.5	2.475	1.967	1.592
x2 = 0.55	2.22	1.78	1.453
x2 = 0.6	1.978	1.602	1.317
x2 = 0.65	1.75	1.431	1.184
x2 = 0.7	1.534	1.267	1.056
x2 = 0.75	1.333	1.113	0.9327
x2 = 0.8	1.145	0.9661	0.815
x2 = 0.85	0.9716	0.8284	0.7037
x2 = 0.9	0.8131	0.6998	0.5997
x2 = 0.95	0.6699	0.5807	0.504

CCN(CC)S(C)(=O)=O + CO
303.15 K, 101.33 kPa
Conditions	viscosity [mPa·s]
x1 = 0.065	60400
x1 = 0.1394	73000
x1 = 0.2155	88400
x1 = 0.2885	103400
x1 = 0.3717	123400
x1 = 0.4509	145100
x1 = 0.5148	164500
x1 = 0.5856	187800
x1 = 0.6922	228900
x1 = 0.7686	263600
x1 = 0.8304	295600
x1 = 0.9084	341400

CS(C)=O + CO
Conditions	viscosity [mPa·s]
298.15 K, 101 kPa, x1 = 0.2	0.705
298.15 K, 101 kPa, x1 = 0.4	0.942
298.15 K, 101 kPa, x1 = 0.6	1.212
298.15 K, 101 kPa, x1 = 0.8	1.581
298.15 K, 101.3 kPa, x1 = 0.0439	0.583
298.15 K, 101.3 kPa, x1 = 0.093	0.616
298.15 K, 101.3 kPa, x1 = 0.1279	0.642
298.15 K, 101.3 kPa, x1 = 0.2139	0.708
298.15 K, 101.3 kPa, x1 = 0.2908	0.792
298.15 K, 101.3 kPa, x1 = 0.3809	0.884
298.15 K, 101.3 kPa, x1 = 0.4902	1.03
298.15 K, 101.3 kPa, x1 = 0.6224	1.259
298.15 K, 101.3 kPa, x1 = 0.7858	1.564
298.15 K, 101.3 kPa, x1 = 0.8923	1.768
298.15 K, 101.3 kPa, x1 = 0.9667	1.923
298.15 K, 101.31 kPa, x1 = 0.1531	0.66
298.15 K, 101.31 kPa, x1 = 0.1961	0.695
298.15 K, 101.31 kPa, x1 = 0.2939	0.792
298.15 K, 101.31 kPa, x1 = 0.4044	0.917
298.15 K, 101.31 kPa, x1 = 0.533	1.064
298.15 K, 101.31 kPa, x1 = 0.6303	1.201
298.15 K, 101.31 kPa, x1 = 0.7167	1.379
298.15 K, 101.31 kPa, x1 = 0.817	1.586
298.15 K, 101.31 kPa, x1 = 0.8886	1.737
299 K, 101 kPa, x1 = 0.0375	0.9137
299 K, 101 kPa, x1 = 0.119	1.048
299 K, 101 kPa, x1 = 0.2599	1.264
299 K, 101 kPa, x1 = 0.3691	1.384
299 K, 101 kPa, x1 = 0.4937	1.964
299 K, 101 kPa, x1 = 0.7172	2.348
303.15 K, 101.3 kPa, x1 = 0.0439	0.544
303.15 K, 101.3 kPa, x1 = 0.093	0.566
303.15 K, 101.3 kPa, x1 = 0.1279	0.583
303.15 K, 101.3 kPa, x1 = 0.2139	0.661
303.15 K, 101.3 kPa, x1 = 0.2908	0.741
303.15 K, 101.3 kPa, x1 = 0.3809	0.82
303.15 K, 101.3 kPa, x1 = 0.4902	0.937
303.15 K, 101.3 kPa, x1 = 0.6224	1.11
303.15 K, 101.3 kPa, x1 = 0.7858	1.368
303.15 K, 101.3 kPa, x1 = 0.8923	1.573
303.15 K, 101.3 kPa, x1 = 0.9667	1.713
308.15 K, 101.31 kPa, x1 = 0.1531	0.581
308.15 K, 101.31 kPa, x1 = 0.1961	0.612
308.15 K, 101.31 kPa, x1 = 0.2939	0.694
308.15 K, 101.31 kPa, x1 = 0.4044	0.798
308.15 K, 101.31 kPa, x1 = 0.533	0.92
308.15 K, 101.31 kPa, x1 = 0.6303	1.03
308.15 K, 101.31 kPa, x1 = 0.817	1.336
308.15 K, 101.31 kPa, x1 = 0.8886	1.454
318.15 K, 101.31 kPa, x1 = 0.1531	0.514
318.15 K, 101.31 kPa, x1 = 0.1961	0.544
318.15 K, 101.31 kPa, x1 = 0.2939	0.613
318.15 K, 101.31 kPa, x1 = 0.533	0.804
318.15 K, 101.31 kPa, x1 = 0.6303	0.894
318.15 K, 101.31 kPa, x1 = 0.817	1.141
318.15 K, 101.31 kPa, x1 = 0.8886	1.194
